Results on three compounds are retold here after publication PMC12089418, “Quantifying VMAT2 target occupancy at effective valbenazine doses and comparing to a novel VMAT2 inhibitor: a translational PET study” (Neuropsychopharmacology, 2025).

Series [1] addresses T1, VMAT2 (Rattus norvegicus, UniProt Q01827).
T1 construct: from tissue; host or cells: rats dosed in vivo; tissue and read-out method not described
Put plainly: Rat NBI-98782 PK-%TO study. The series is classed as in vivo. The conditions noted are these: Data on file.

Series [2] deals with VMAT2. The settings on record: cited from earlier work.
In series [3] the target is T2, VMAT2 (Macaca fascicularis, UniProt A0A2K5UVB8). Also noted: method as in PMID 32122751. The settings on record: bolus administration; radioligand [+]-α-[11C]dHTBZ; cited from earlier work.
Target sequence in this assay (A0A2K5UVB8 1-517): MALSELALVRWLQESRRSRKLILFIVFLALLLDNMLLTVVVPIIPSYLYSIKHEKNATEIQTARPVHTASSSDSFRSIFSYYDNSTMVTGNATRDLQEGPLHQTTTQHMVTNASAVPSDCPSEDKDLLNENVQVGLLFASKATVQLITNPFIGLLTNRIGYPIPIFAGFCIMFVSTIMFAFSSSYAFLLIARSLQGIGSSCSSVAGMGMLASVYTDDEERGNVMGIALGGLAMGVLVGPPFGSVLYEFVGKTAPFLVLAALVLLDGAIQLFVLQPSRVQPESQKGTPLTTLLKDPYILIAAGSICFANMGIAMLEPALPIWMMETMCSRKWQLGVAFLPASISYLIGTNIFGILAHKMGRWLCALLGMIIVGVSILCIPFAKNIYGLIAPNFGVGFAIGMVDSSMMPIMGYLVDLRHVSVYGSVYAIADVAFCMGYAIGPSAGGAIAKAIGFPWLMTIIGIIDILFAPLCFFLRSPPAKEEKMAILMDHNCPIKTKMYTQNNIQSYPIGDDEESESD
Series [4] in a line: Plasma protein binding by equilibrium dialysis, cynomolgus monkey plasma. It is filed as in vitro ADME, cynomolgus monkeys. The settings on record: both sexes, pooled plasma, read-out: fraction unbound in plasma (fu_p). A general note: In equilibrium dialysis free small molecules cross a membrane that holds back macromolecules.
The test system of series [5] is other targets. Also noted: method as in PMID 28776237, PMID 28404690, PMID 29680151. The conditions noted are these: cited from earlier work.
For series [6], the target named is T2, VMAT2. Briefly: [18F]AV-133 baseline PET test-retest. The series is classed as in vivo, cynomolgus macaques. The settings on record: 2 NHPs, caudate and putamen, baseline scans ~5 months apart. The protocol:
Test-retest variability of BPND in the caudate and putamen were calculated as3 TRTV%=100xBPND1−BPND2/(BPND1+BPND2)/2
Target sequence in this assay (A0A2K5UVB8 entry or part of it): as the sequence (A0A2K5UVB8 1-517) above

Series [7] deals with TD patients. On the set-up: method as in PMID 28320223. The settings on record: 6 weeks, cited from earlier work.
Series [8] deals with VMAT2 (Homo sapiens, UniProt Q05940). Briefly: Estimated human VMAT2 %TO from human PK and NHP PET free EC50. On the set-up: from tissue; host or cells: brain of healthy male volunteers (caudate, putamen). The series is classed as in vivo. The conditions noted are these: for VMAT2 %TO at Cavg / VMAT2 %TO at Cmax / VMAT2 %TO at Ctrough: from free NBI-98782 and NHP PET EC50. The protocol:
Valbenazine human plasma exposure metrics in patients were estimated with a population pharmacokinetic (PK) analysis and plasma protein binding (PPB) data. […] These steady-state concentrations, in conjunction with free EC50 from NHP PET for blocking compounds was used to estimate %TO in humans. Plasma concentrations of NBI-750142 following 60 mg BID dose were estimated using plasma concentrations following a single oral dose of 60 mg NBI-750142 using the principle of superposition.

Series [9] has as its system chorea associated with Huntington’s Disease. Also noted: method as in PMID 37210099. The settings on record: valbenazine 80 mg; cited from earlier work.

Like-named read-outs stand apart in the source and are kept apart here. Where only a bound is given, the exact number is not on record here.

VMAT2 (Homo sapiens, UniProt Q05940), sequence (Q05940 whole entry): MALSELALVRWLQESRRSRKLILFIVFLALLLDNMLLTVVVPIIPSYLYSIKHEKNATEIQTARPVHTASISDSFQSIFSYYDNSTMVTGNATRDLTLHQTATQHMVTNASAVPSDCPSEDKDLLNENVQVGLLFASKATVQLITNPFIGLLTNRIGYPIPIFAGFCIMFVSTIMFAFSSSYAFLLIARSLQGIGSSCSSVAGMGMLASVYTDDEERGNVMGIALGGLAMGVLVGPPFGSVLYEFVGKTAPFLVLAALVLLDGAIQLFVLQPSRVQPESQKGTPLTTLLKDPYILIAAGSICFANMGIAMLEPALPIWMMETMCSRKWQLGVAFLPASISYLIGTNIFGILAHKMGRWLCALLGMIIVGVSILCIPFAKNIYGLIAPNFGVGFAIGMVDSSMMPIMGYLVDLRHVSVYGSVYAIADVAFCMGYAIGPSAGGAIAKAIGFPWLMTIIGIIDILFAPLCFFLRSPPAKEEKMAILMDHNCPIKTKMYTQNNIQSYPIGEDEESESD
T1 sequence (Q01827 whole entry): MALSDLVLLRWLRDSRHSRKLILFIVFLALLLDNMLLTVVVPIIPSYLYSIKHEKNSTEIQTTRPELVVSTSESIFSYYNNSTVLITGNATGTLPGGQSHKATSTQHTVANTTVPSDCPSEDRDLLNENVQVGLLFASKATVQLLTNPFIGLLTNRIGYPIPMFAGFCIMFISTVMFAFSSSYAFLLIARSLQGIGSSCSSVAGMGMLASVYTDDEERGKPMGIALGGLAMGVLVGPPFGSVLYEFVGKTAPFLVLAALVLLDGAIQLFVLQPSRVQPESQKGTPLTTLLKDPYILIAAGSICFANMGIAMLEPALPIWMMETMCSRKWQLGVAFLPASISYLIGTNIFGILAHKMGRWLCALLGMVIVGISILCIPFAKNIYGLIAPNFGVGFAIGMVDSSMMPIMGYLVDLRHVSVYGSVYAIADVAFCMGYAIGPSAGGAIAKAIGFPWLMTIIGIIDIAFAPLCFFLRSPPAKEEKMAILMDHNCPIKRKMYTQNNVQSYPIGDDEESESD

The fraction unbound is free concentration divided by total concentration. Take `COc1cc2c(cc1OC)C1CC(O)C(CC(C)C)CN1CC2` (stereo not drawn) [NBI-98782, (+)-α-dHTBZ (dihydrotetrabenazine)]: the “NBI-98782 PK-%TO relationship, valbenazine-dosed vs NBI-98782-dosed rats” value in [1] was “nearly identical”. The “potency at VMAT2” value in series [2] is on record as “nanomolar potency”. Moreover, the “ED50 (dose vs VMAT2 occupancy)” value in [3] was 0.055 mg/kg. In addition, in [4], the unbound share (fraction unbound) turned out to be 0.4. Further, the “inhibition of other targets” value in series [5] is reported as “minimal to non-detectable inhibition”.
In the case of `COc1cc2c(cc1OCCC[18F])CCN1C[C@@H](CC(C)C)[C@H](O)C[C@H]21` [[^18F]AV-133], the “test-retest variability of baseline BPND” value in series [6] is given as less than 10%.
Turning to `COc1cc2c(cc1OC)[C@H]1C[C@@H](OC(=O)[C@@H](N)C(C)C)[C@H](CC(C)C)CN1CC2` [valbenazine], the “Cohen's d, AIMS score reduction” value in series [7] (valbenazine 40 mg once daily oral) is given as 0.5; in series [7] (valbenazine 80 mg once daily oral), 0.9. Besides, the “patients with robust AIMS response (>50% reduction from baseline)” value is 24% in series [7] (valbenazine 40 mg) and 40% in [7] (valbenazine 80 mg). The “potency at VMAT2 relative to NBI-98782 (fold less potent)” value in series [2] (parent compound vs active metabolite) is ~ 40 fold. The “VMAT2 %TO at Cavg” value is ~ 80% in series [8] (40 mg VBZ QD); 79% in [8] (40 mg VBZ QD, listed as VBZ); 89% in [8] (80 mg VBZ QD). The “VMAT2 %TO at Cmax” value is recorded as 82% in [8] (40 mg VBZ QD) and 91% in series [8] (80 mg VBZ QD). The “VMAT2 %TO at Ctrough” value in series [8] (40 mg VBZ QD) was 73%; in series [8] (80 mg VBZ QD), “above 85%”; in series [8] (80 mg VBZ QD, listed as VBZ), 85%. The “VMAT2 %TO estimations at steady state” value in series [8] (80 mg valbenazine daily, Ctrough to Cmax) is given as ~ 90%. Moreover, the “VMAT2 occupancy achieved by once daily valbenazine treatment” value in [8] (40 and 80 mg once daily) is given as 80–90%. Moreover, the “Cohen's d, chorea” value in series [9] is 0.9.
